Measurements published in patent US20060025346A1, “Permeability enhancer” (priority 2004, published 2006).
Entries after “also recorded” stand apart in the source; their conditions may differ.

How the values were obtained:
Caco-2 cell monolayer = details: literature reports; cited from earlier work

CCCCCCCCCC(=O)[O-].[Na+] [sodium caprate]
side effects / cell damage due to relatively strong ability to open tight junctions (Caco-2 cell monolayer): risk of cell damage have been observed | permeability enhancing effect on high molecular weight model substance FD-10 (relative Papp) (MDCK cells): nonspecifically increased the permeability; also recorded: marked permeability enhancing effect | permeability enhancing effect on low molecular weight model substance Flu (relative Papp) (MDCK cells): nonspecifically increased the permeability; also recorded: marked permeability enhancing effect | permeability enhancing effect on low molecular weight model substance LY (relative Papp) (MDCK cells): nonspecifically increased the permeability; also recorded: marked permeability enhancing effect
